Experimental data reported in the supplement of paper PMC11061612.

Key:
NB12 (Neuroblastoma) [1] = test: Bliss excess, mean over the matrix (fraction); higher = more synergy
Summary of the method: (§1)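 Cell lines grown in DMEM/F12 or RPMI with 10% FBS were plated in 1536-well plates and held 24 hours at 37°C, 5% CO2 before 72 hours of exposure to two-drug dose matrices, with DMSO typically at 0.2%. CellTiter-Glo 2.0 luminescence gave viability, which was converted to inhibition. Vehicle wells were set to 0 and blank wells to 1. Combination Emax is the second-highest inhibition in the matrix, and Bliss excess is the observed combination effect minus the expected EA + EB − EA·EB, where EA and EB are the single-agent effects.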

SK-MEL-2 (Melanoma) [2] = test: as above
Summary of the method: as §1

[3] = tested on: MKN45 (Gastric Carcinoma); test: combination Emax (second highest fraction inhibited in the dose matrix, 72 h); higher = more inhibition; extreme values may be limits of the assay
Summary of the method: as §1

NB12 (Neuroblastoma) [4] = test: as above
Summary of the method: as §1

SF539 (Glioblastoma) = test: as above
Summary of the method: as §1

[5] = tested on: OVMIU (Ovarian Carcinoma); test: as above
Summary of the method: as §1

SK-MEL-2 (Melanoma) [6] = test: as above
Summary of the method: as §1

[7] = tested on: HEC-1 (Endometrial Carcinoma); test: as above
Summary of the method: as §1

[8] = tested on: L-1236 (Hodgkin's Lymphoma); test: as above
Summary of the method: as §1

[9] = tested on: VAL (B-Cell Non-Hodgkin's Lymphoma); test: as above
Summary of the method: as §1
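Throughout, for Bliss excess, mean over the matrix: after 72 h of two-drug dosing.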

Compound	Bliss excess (NB12 (Neuroblastoma) [1])	Bliss excess (SK-MEL-2 (Melanoma) [2])	combination Emax [3]	combination Emax (NB12 (Neuroblastoma) [4])	combination Emax (SF539 (Glioblastoma))	combination Emax [5]	combination Emax (SK-MEL-2 (Melanoma) [6])	combination Emax [7]	combination Emax [8]	combination Emax [9]
NC1(C(=O)N[C@@H](CCO)c2ccc(Cl)cc2)CCN(c2ncnc3[nH]ccc23)CC1 [Capivasertib] + CC(=O)c1c(C)c2cnc(Nc3ccc(N4CCNCC4)cn3)nc2n(C2CCCC2)c1=O [Palbociclib] (first compound max 10 µM, 7x7, partner max 10 µM)	0.0139	-0.0408	0.628	0.399	0.578	0.383	0.0717	0.33	0.861	0.626
NC1(C(=O)N[C@@H](CCO)c2ccc(Cl)cc2)CCN(c2ncnc3[nH]ccc23)CC1 [Capivasertib] + CC(C)n1c(=O)n(C)c2cnc3cc(F)c(-c4ccc(OCCCN5CCCCC5)nc4)cc3c21 [AZD1390] (first compound max 10 µM, 7x7, partner max 0.3 µM)	0.0009	-0.0125	0.432	0.504	0.617	0.353	0.176	0.145	0.759	0.609
NC1(C(=O)N[C@@H](CCO)c2ccc(Cl)cc2)CCN(c2ncnc3[nH]ccc23)CC1 [Capivasertib] + CCN(CCO)CCCOc1ccc2c(Nc3cc(CC(=O)Nc4cccc(F)c4)[nH]n3)ncnc2c1 [AZD2811] (first compound max 10 µM, 7x7, partner max 1 µM)	-0.0279	-0.0383	0.486	0.783	0.723	0.381	0.0759	0.212	0.792	0.761
NC1(C(=O)N[C@@H](CCO)c2ccc(Cl)cc2)CCN(c2ncnc3[nH]ccc23)CC1 [Capivasertib] + COc1nnc2ccc(N3CCC(c4ccc(OCCN5CCN(C)C(=O)[C@H]5C)cc4)CC3)nn12 [AZD5153] (first compound max 10 µM, 7x7, partner max 1 µM)	0.0031	-0.0015	0.58	0.985	0.707	0.665	0.578	0.688	1	0.806
NC1(C(=O)N[C@@H](CCO)c2ccc(Cl)cc2)CCN(c2ncnc3[nH]ccc23)CC1 [Capivasertib] + C[C@@H]1COCCN1C2=NC(=NC(=C2)C3(CC3)[S@](=N)(=O)C)C4=C5C=CNC5=NC=C4 [AZD6738] (first compound max 10 µM, 7x7, partner max 10 µM)	-0.0449	-0.0335	0.753	0.738	0.879	0.62	0.152	0.347	0.818	0.831
NC1(C(=O)N[C@@H](CCO)c2ccc(Cl)cc2)CCN(c2ncnc3[nH]ccc23)CC1 [Capivasertib] + Cn1cnc2c(F)c(Nc3ccc(Br)cc3Cl)c(C(=O)NOCCO)cc21 [Selumetinib] (first compound max 10 µM, 7x7, partner max 10 µM)	0.0154	0.0662	0.705	0.504	0.68	0.585	0.843	0.239	0.844	0.607
Cc1nc(Nc2ncc(C(=O)Nc3c(C)cccc3Cl)s2)cc(N2CCN(CCO)CC2)n1 [Dasatinib] + CC(=O)Nc1cccc(-n2c(=O)n(C3CC3)c(=O)c3c(Nc4ccc(I)cc4F)n(C)c(=O)c(C)c32)c1 [Trametinib] (first compound max 2 µM, 7x7, partner max 1 µM)	0.0319	-0.0571	0.79	0.266	0.602	0.798	0.94	0.295	0.243	0.691
COc1cc2ncnc(Nc3ccc(F)c(Cl)c3)c2cc1OCCCN1CCOCC1 [Gefitinib] + CC(C)n1c(=O)n(C)c2cnc3cc(F)c(-c4ccc(OCCCN5CCCCC5)nc4)cc3c21 [AZD1390] (first compound max 10 µM, 7x7, partner max 0.3 µM)	-0.0668	-0.0348	0.14	0.139	0.143	0.532	0.169	0.0663	0.254	0.527
CS(=O)(=O)CCNCc1ccc(-c2ccc3ncnc(Nc4ccc(OCc5cccc(F)c5)c(Cl)c4)c3c2)o1 [Lapatinib] + C[C@@H](Oc1cc(-c2cnn(C3CCNCC3)c2)cnc1N)c1c(Cl)ccc(F)c1Cl [Crizotinib] (first compound max 10 µM, 7x7, partner max 10 µM)	-0.0622	-0.0232	0.913	0.843	0.937	0.969	0.62	0.182	0.984	0.808
CC(=O)c1c(C)c2cnc(Nc3ccc(N4CCNCC4)cn3)nc2n(C2CCCC2)c1=O [Palbociclib] + CC1(C)CCC(CN2CCN(c3ccc(C(=O)NS(=O)(=O)c4ccc(NCC5CCOCC5)c([N+](=O)[O-])c4)c(Oc4cnc5[nH]ccc5c4)c3)CC2)=C(c2ccc(Cl)cc2)C1 [Venetoclax] (first compound max 10 µM, 7x7, partner max 1 µM)	0.0237	-0.0492	0.486	0.614	0.262	0.149	0.11	0.0102	0.611	0.997
CC(=O)c1c(C)c2cnc(Nc3ccc(N4CCNCC4)cn3)nc2n(C2CCCC2)c1=O [Palbociclib] + Cc1c2c(nn1C)CSCc1cc(n(C)n1)CSc1cc(c3ccccc3c1)OCCCc1c(C(=O)O)n(C)c3c-2c(Cl)ccc13 [AZD5991] (first compound max 10 µM, 7x7, partner max 1 µM)	0.0159	-0.045	0.498	0.357	0.293	0.27	0.905	0.153	0.782	0.717
CC(=O)c1c(C)c2cnc(Nc3ccc(N4CCNCC4)cn3)nc2n(C2CCCC2)c1=O [Palbociclib] + Cn1cnc2c(F)c(Nc3ccc(Br)cc3Cl)c(C(=O)NOCCO)cc21 [Selumetinib] (first compound max 10 µM, 7x7, partner max 10 µM)	0.0177	0.0374	0.694	0.276	0.336	0.427	0.805	0.056	0.658	0.599
C[C@@H](c1ccc2nccn2c1)n1nnc2ncc(-c3cnn(C)c3)nc21 [Savolitinib] + CC1(C)CCC(CN2CCN(c3ccc(C(=O)NS(=O)(=O)c4ccc(NCC5CCOCC5)c([N+](=O)[O-])c4)c(Oc4cnc5[nH]ccc5c4)c3)CC2)=C(c2ccc(Cl)cc2)C1 [Venetoclax] (first compound max 1 µM, 7x7, partner max 1 µM)	-0.0062	-0.0295	0.831	0.641	0.161	0.284	0.14	0.133	0.416	0.963
C[C@@H](c1ccc2nccn2c1)n1nnc2ncc(-c3cnn(C)c3)nc21 [Savolitinib] + Cc1c2c(nn1C)CSCc1cc(n(C)n1)CSc1cc(c3ccccc3c1)OCCCc1c(C(=O)O)n(C)c3c-2c(Cl)ccc13 [AZD5991] (first compound max 1 µM, 7x7, partner max 1 µM)	-0.0075	-0.023	0.839	0.219	0.21	0.114	0.901	0.107	0.668	0.564
Cn1cnc2c(F)c(Nc3ccc(Br)cc3Cl)c(C(=O)NOCCO)cc21 [Selumetinib] + C=CCn1c(=O)c2cnc(Nc3ccc(N4CCN(C)CC4)cc3)nc2n1-c1cccc(C(C)(C)O)n1 [AZD1775] (first compound max 10 µM, partner max 1 µM)	-0.0517	0.0533	0.8	0.674	0.972	0.498	0.831	0.157	0.956	0.732
Cn1cnc2c(F)c(Nc3ccc(Br)cc3Cl)c(C(=O)NOCCO)cc21 [Selumetinib] + CC(C)n1c(=O)n(C)c2cnc3cc(F)c(-c4ccc(OCCCN5CCCCC5)nc4)cc3c21 [AZD1390] (first compound max 10 µM, 7x7, partner max 0.3 µM)	-0.0215	-0.0602	0.61	0.106	0.359	0.402	0.739	0.0424	0.301	0.0806
Cn1cnc2c(F)c(Nc3ccc(Br)cc3Cl)c(C(=O)NOCCO)cc21 [Selumetinib] + CCN(CCO)CCCOc1ccc2c(Nc3cc(CC(=O)Nc4cccc(F)c4)[nH]n3)ncnc2c1 [AZD2811] (first compound max 10 µM, 7x7, partner max 1 µM)	-0.0881	-0.0538	0.674	0.607	0.501	0.407	0.722	0.0639	0.289	0.678
Cn1cnc2c(F)c(Nc3ccc(Br)cc3Cl)c(C(=O)NOCCO)cc21 [Selumetinib] + C[C@@H]1COCCN1C2=NC(=NC(=C2)C3(CC3)[S@](=N)(=O)C)C4=C5C=CNC5=NC=C4 [AZD6738] (first compound max 10 µM, 7x7, partner max 10 µM)	-0.0545	-0.0161	0.782	0.39	0.855	0.476	0.806	0.298	0.839	0.746
